Data from PubChem BioAssay (NCI).
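How tested: cells in 96-well plates exposed to compound for 48 hours at five concentrations. Abbreviation: GI50, concentration required for 50% inhibition of growth. TGI denotes the concentration required for complete inhibition of growth.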

System: SN12K1 renal
Experiment: NCI tumour cell line growth inhibition, 48 h

`CC[C@H]1CN2CCc3cc(OC)c(OC)cc3[C@@H]2C[C@@H]1C[C@H]1NCCc2cc(O)c(OC)cc21` showed a GI50 of 25 nM and a TGI of 191 nM.
